Reference: patent US20250120920A1, “DRUG-DELIVERING NERVE WRAP” (UNIVERSITY OF UTAH RESEARCH FOUNDATION, priority 2019, published 2025)

Tests used:
[1] = tested on: whole chick DRGs; experiment: DRG neurite extension bioactivity verification assay; type: cell-based; settings: 20 ng/ml FK506 positive control; 72 hours culture
Description: Fertilized chicken eggs (Merrills Poultry, ID, USA) were incubated at ˜39° C. under 100% relative humidity for 12 days. Dorsal root ganglions (DRG) were dissected from the embryos under a microscope. 24-well plates were coated with laminin (1 μg/ml), then 500 μL from each media sample was placed into 3 wells. DRGs were separated carefully from connective tissue for culturing and a single DRG was placed into each well. For comparison to known FK506 concentrations, DRGs were also grown in negative and positive control concentrations of FK506, 0 ng/ml and 20 ng/ml, respectively. Groups tested: 0 ng/ml FK506 (n=4), 20 ng/ml FK506 control (n=4), Day 4 collection of LD-Wrap (n=6), and Day 4 collection of HD-Wrap (n=8). amples were diluted in DMEM/F12+10% FBS and 1% Pen-Strep. HD-Wrap and LD-Wrap drug release test samples were diluted by a factor of 10 and 2, respectively. Drug release test samples average concentrations after dilution: Day 4 LD-Wrap—18.5 ng/ml FK506 and Day 4 HD-Wrap—23.1 ng/ml FK506. The plate was incubated for 72 hours at 37° C. and 5% CO2 to evaluate the released drug's bioactivity. […] Briefly, the area of the ganglion body (ADRG) and the total area of the DRG with the growing axons (Atot) were measured using ImageJ (ImageJ 1.31v, National Institutes of Health, Bethesda, USA). The average neurite length (lavg) was calculated by: lavg=(Atot/π)^1/2−(ADRG/π)^1/2. […]

[2] = type: physicochemical
Description: The inventors discovered that FK506, in particular, is subject to thermal degradation beginning at about 140° C. when incorporated into the preferred polymers within the preferred loading ranges as disclosed herein. While conventional PLLA and PLLA co-polymer hot-melt extrusion protocols call for temperatures exceeding 140° C., limiting the maximum temperature still allows for sufficient manufacturability while minimizing or preventing unwanted thermal degradation of the FK506.

- temperature at which thermal degradation begins [2]: about 140 °C
SMILES: C=CC[C@@H]1/C=C(\C)C[C@H](C)C[C@H](OC)[C@H]2O[C@@](O)(C(=O)C(=O)N3CCCC[C@H]3C(=O)O[C@H](/C(C)=C/[C@@H]3CC[C@@H](O)[C@H](OC)C3)[C@H](C)[C@@H](O)CC1=O)[C@H](C)C[C@@H]2OC [FK506]
- Average neurite extension [1]: 720±72.2 μm
